What is called IC50 is the concentration needed to halve the response being measured.

The text below walks through data of patent US20110224210A1, “NOVEL BIS-AMIDES AS ANTI-MALARIAL AGENTS” (priority 2008, published 2011).

The test system of this test is P. falciparum K1 (strain resistant to chloroquine and pyrimethamine), erythrocytic stages. Nature of the test: Plasmodium falciparum in vitro assay, [3H] hypoxanthine incorporation. The test is classed as cell-based. The settings on record: Plasmodium falciparum, K1, P. falciparum strain K1; [3H] hypoxanthine incorporation; read-out: IC50 (nM) on K1. As for the experimental part: In Vitro Antimalarial Activity: Plasmodium falciparum In Vitro Assay
In vitro activity against erythrocytic stages of P. falciparum is determined using a [^3H] hypoxanthine incorporation assay. One strain resistant to chloroquine and pyrimethamine (P. falciparum K1) is used in the assays, and all test compounds are compared for activity with the standard drugs chloroquine (sigma C6628) and artemisinin (sigma-36, 159-3). Compounds are diluted in DMSO to 1 mM and added to parasite cultures incubated in RPMI 1640 medium without hypoxanthine, supplemented with HEPES (5.94 g/L), NaHCO3 (2.1 g/L), neomycin (100 U/mL), Albumax (5 g/L) and washed human red cells at 2.5% haematocrit (0.3% parasitaemia). Seven serial doubling dilutions of each compound are prepared in 96-well microtitre plates and incubated in a humidifying atmosphere at 37° C.; 4% CO2, 3% O2, 93% N2.
After 48 h, 50 μl of [3H] hypoxanthine (0.5 μCi) is added to each well of a plate. The plates are incubated for a further 24 h under the same conditions. The plates are then harvested with a Betaplate cell harvester (Wallac) and washed with distilled water. The dried filters are inserted into a plastic foil with 10 mL of scintillation fluid, and counted in a Betaplate liquid scintillation counter. IC50 values are calculated from sigmoidal inhibition curves using Microsoft Excel.

Consider `Cc1nn(C)c(C)c1C=CC(=O)N(Cc1ccc(-c2ccccn2)cc1)[C@@H](Cc1ccccc1)C(=O)N1CCC(N(C)C)CC1` [Example 9, (S)-N-[1-Benzyl-2-(4-dimethylamino-piperidin-1-yl)-2-oxo-ethyl]-N-(4-pyridin-2-yl-benzyl)-3-(1,3,5-trimethyl-1H-pyrazol-4-yl)-acrylamide], for which the IC50 stood at 69 nM.

On to `Cc1nc(C)c(C=CC(=O)N(Cc2ccc(-c3ccccn3)cc2)[C@@H](Cc2ccccc2)C(=O)N2CCC(N(C)C)CC2)s1` [Example 10, (S)-N-[1-Benzyl-2-(4-dimethylamino-piperidin-1-yl)-2-oxo-ethyl]-3-(2,4-dimethyl-thiazol-5-yl)-N-(4-pyridin-2-yl-benzyl)-acrylamide], for which the IC50 was found to be 176 nM.

Regarding `Cc1nc(C=CC(=O)N(Cc2ccc(-c3ccccn3)cc2)[C@@H](Cc2ccccc2)C(=O)N2CCC(N(C)C)CC2)cs1` [Example 11, (S)-N-[1-Benzyl-2-(4-dimethylamino-piperidin-1-yl)-2-oxo-ethyl]-3-(2-methyl-thiazol-4-yl)-N-(4-pyridin-2-yl-benzyl)-acrylamide], the IC50 is 315 nM.

Regarding `Cc1noc(C)c1C=CC(=O)N(Cc1ccc(-c2ccccn2)cc1)[C@@H](Cc1ccccc1)C(=O)N1CCC(N(C)C)CC1` [Example 12, (S)-N-[1-Benzyl-2-(4-dimethylamino-piperidin-1-yl)-2-oxo-ethyl]-3-(3,5-dimethyl-isoxazol-4-yl)-N-(4-pyridin-2-yl-benzyl)-acrylamide], the IC50 is 220 nM.

Regarding `Cc1nc(C=CC(=O)N(Cc2ccc(-c3ccccn3)cc2)[C@@H](Cc2ccccc2)C(=O)N2CCC(N(C)C)CC2)c(C)o1` [Example 13, (S)-N-[1-Benzyl-2-(4-dimethylamino-piperidin-1-yl)-2-oxo-ethyl]-3-(2,5-dimethyl-oxazol-4-yl)-N-(4-pyridin-2-yl-benzyl)-acrylamide], the IC50 was 355 nM.

On to `CN(C)C1CCN(C(=O)[C@H](Cc2ccccc2)N(Cc2ccc(-c3ccccn3)cc2)C(=O)C=Cc2ccc(Cl)nc2)CC1` [Example 14, (S)-N-[1-Benzyl-2-(4-dimethylamino-piperidin-1-yl)-2-oxo-ethyl]-3-(6-chloro-pyridin-3-yl)-N-(4-pyridin-2-yl-benzyl)-acrylamide], for which the IC50 was 226 nM.

As for `Cc1ccc(C=CC(=O)N(Cc2ccc(-c3ccccn3)cc2)[C@@H](Cc2ccccc2)C(=O)N2CCC(N(C)C)CC2)nc1` [Example 15, (S)-N-[1-Benzyl-2-(4-dimethylamino-piperidin-1-yl)-2-oxo-ethyl]-3-(5-methyl-pyridin-2-yl)-N-(4-pyridin-2-yl-benzyl)-acrylamide], the IC50 was found to be 163 nM.

For the molecule `COc1ccc(C=CC(=O)N(Cc2ccc(-c3ccccn3)cc2)[C@@H](Cc2ccccc2)C(=O)N2CCC(N(C)C)CC2)cn1` [Example 16, (S)-N-[1-Benzyl-2-(4-dimethylamino-piperidin-1-yl)-2-oxo-ethyl]-3-(6-methoxy-pyridin-3-yl)-N-(4-pyridin-2-yl-benzyl)-acrylamide], the IC50 was determined as 115 nM.

Take `CN(C)C1CCN(C(=O)[C@H](Cc2ccccc2)N(Cc2ccc(-c3ccccn3)cc2)C(=O)C=Cc2ccc(C(F)(F)F)cn2)CC1` [Example 17, (S)-N-[1-Benzyl-2-(4-dimethylamino-piperidin-1-yl)-2-oxo-ethyl]-N-(4-pyridin-2-yl-benzyl)-3-(5-trifluoromethyl-pyridin-2-yl)-acrylamide]: the IC50 was determined as 113 nM.

`Cc1c(C=CC(=O)N(Cc2ccc(-c3ccccn3)cc2)[C@@H](Cc2ccccc2)C(=O)N2CCC(N(C)C)CC2)cnn1C` [Example 18, (S)-N-[1-Benzyl-2-(4-dimethylamino-piperidin-1-yl)-2-oxo-ethyl]-3-(1,5-dimethyl-1H-pyrazol-4-yl)-N-(4-pyridin-2-yl-benzyl)-acrylamide]: the IC50 amounted to 273 nM.

As to `CN(C)C1CCN(C(=O)[C@H](Cc2ccccc2)N(Cc2ccc(-c3ccncc3)cc2)C(=O)C=Cc2ccn(C)n2)CC1` [Example 19, (S)-N-[1-Benzyl-2-(4-dimethylamino-piperidin-1-yl)-2-oxo-ethyl]-3-(1-methyl-1H-pyrazol-3-yl)-N-(4-pyridin-4-yl-benzyl)-acrylamide], the IC50 was determined as 250 nM.

In the case of `Cc1cc(C=CC(=O)N(Cc2ccc(-c3ccncc3)cc2)[C@@H](Cc2ccccc2)C(=O)N2CCC(N(C)C)CC2)n(C)n1` [Example 20, (S)-N-[1-Benzyl-2-(4-dimethylamino-piperidin-1-yl)-2-oxo-ethyl]-3-(2,5-dimethyl-2H-pyrazol-3-yl)-N-(4-pyridin-4-yl-benzyl)-acrylamide], the IC50 was 116 nM.

For `Cc1nn(C)c(C)c1C=CC(=O)N(Cc1ccc(-c2ccncc2)cc1)[C@@H](Cc1ccccc1)C(=O)N1CCC(N(C)C)CC1` [Example 21, (S)-N-[1-Benzyl-2-(4-dimethylamino-piperidin-1-yl)-2-oxo-ethyl]-N-(4-pyridin-4-yl-benzyl)-3-(1,3,5-trimethyl-1H-pyrazol-4-yl)-acrylamide], the IC50 was determined as 14 nM.

`Cc1nc(C)c(C=CC(=O)N(Cc2ccc(-c3ccncc3)cc2)[C@@H](Cc2ccccc2)C(=O)N2CCC(N(C)C)CC2)s1` [Example 22, (S)-N-[1-Benzyl-2-(4-dimethylamino-piperidin-1-yl)-2-oxo-ethyl]-3-(2,4-dimethyl-thiazol-5-yl)-N-(4-pyridin-4-yl-benzyl)-acrylamide]: the 50% inhibitory concentration (IC50) came to 60 nM.

For `Cc1nc(C=CC(=O)N(Cc2ccc(-c3ccncc3)cc2)[C@@H](Cc2ccccc2)C(=O)N2CCC(N(C)C)CC2)cs1` [Example 23, (S)-N-[1-Benzyl-2-(4-dimethylamino-piperidin-1-yl)-2-oxo-ethyl]-3-(2-methyl-thiazol-4-yl)-N-(4-pyridin-4-yl-benzyl)-acrylamide], the IC50 is 141 nM.

With `Cc1noc(C)c1C=CC(=O)N(Cc1ccc(-c2ccncc2)cc1)[C@@H](Cc1ccccc1)C(=O)N1CCC(N(C)C)CC1` [Example 24, (S)-N-[1-Benzyl-2-(4-dimethylamino-piperidin-1-yl)-2-oxo-ethyl]-3-(3,5-dimethyl-isoxazol-4-yl)-N-(4-pyridin-4-yl-benzyl)-acrylamide], the concentration for half-maximal inhibition (IC50) worked out at 103 nM.

As to `Cc1nc(C=CC(=O)N(Cc2ccc(-c3ccncc3)cc2)[C@@H](Cc2ccccc2)C(=O)N2CCC(N(C)C)CC2)c(C)o1` [Example 25, (S)-N-[1-Benzyl-2-(4-dimethylamino-piperidin-1-yl)-2-oxo-ethyl]-3-(2,5-dimethyl-oxazol-4-yl)-N-(4-pyridin-4-yl-benzyl)-acrylamide], the IC50 came out at 90 nM.

Consider `COc1ccc(C=CC(=O)N(Cc2ccc(-c3ccncc3)cc2)[C@@H](Cc2ccccc2)C(=O)N2CCC(N(C)C)CC2)nn1` [Example 26, (S)-N-[1-Benzyl-2-(4-dimethylamino-piperidin-1-yl)-2-oxo-ethyl]-3-(6-methoxy-pyridazin-3-yl)-N-(4-pyridin-4-yl-benzyl)-acrylamide], for which the IC50 came out at 465 nM.

Turning to `Cc1ccc(C=CC(=O)N(Cc2ccc(-c3ccncc3)cc2)[C@@H](Cc2ccccc2)C(=O)N2CCC(N(C)C)CC2)cn1` [Example 27, (S)-N-[1-Benzyl-2-(4-dimethylamino-piperidin-1-yl)-2-oxo-ethyl]-3-(6-methyl-pyridin-3-yl)-N-(4-pyridin-4-yl-benzyl)-acrylamide], the IC50 amounted to 67 nM.

In the case of `Cc1ccc(C=CC(=O)N(Cc2ccc(-c3ccncc3)cc2)[C@@H](Cc2ccccc2)C(=O)N2CCC(N(C)C)CC2)nc1` [Example 28, (S)-N-[1-Benzyl-2-(4-dimethylamino-piperidin-1-yl)-2-oxo-ethyl]-3-(5-methyl-pyridin-2-yl)-N-(4-pyridin-4-yl-benzyl)-acrylamide], the IC50 was 81 nM.

Regarding `COc1ccc(C=CC(=O)N(Cc2ccc(-c3ccncc3)cc2)[C@@H](Cc2ccccc2)C(=O)N2CCC(N(C)C)CC2)cn1` [Example 29, (S)-N-[1-Benzyl-2-(4-dimethylamino-piperidin-1-yl)-2-oxo-ethyl]-3-(6-methoxy-pyridin-3-yl)-N-(4-pyridin-4-yl-benzyl)-acrylamide], the IC50 worked out at 34 nM.

In the case of `CN(C)C1CCN(C(=O)[C@H](Cc2ccccc2)N(Cc2ccc(-c3ccncc3)cc2)C(=O)C=Cc2ccc(C(F)(F)F)cn2)CC1` [Example 30, (S)-N-[1-Benzyl-2-(4-dimethylamino-piperidin-1-yl)-2-oxo-ethyl]-N-(4-pyridin-4-yl-benzyl)-3-(5-trifluoromethyl-pyridin-2-yl)-acrylamide], the IC50 was 34 nM.

For `Cc1c(C=CC(=O)N(Cc2ccc(-c3ccncc3)cc2)[C@@H](Cc2ccccc2)C(=O)N2CCC(N(C)C)CC2)cnn1C` [Example 31, (S)-N-[1-Benzyl-2-(4-dimethylamino-piperidin-1-yl)-2-oxo-ethyl]-3-(1,5-dimethyl-1H-pyrazol-4-yl)-N-(4-pyridin-4-yl-benzyl)-acrylamide], the half-inhibitory concentration (IC50) came to 54 nM.

For `COc1ncc(C=CC(=O)N(Cc2ccc(-c3ccncc3)cc2)[C@@H](Cc2ccccc2)C(=O)N2CCC(N(C)C)CC2)cn1` [Example 32, (S)-N-[1-Benzyl-2-(4-dimethylamino-piperidin-1-yl)-2-oxo-ethyl]-3-(2-methoxy-pyrimidin-5-yl)-N-(4-pyridin-4-yl-benzyl)-acrylamide], the IC50 was determined as 298 nM.
